Laboratory results published in ChEMBL document CHEMBL1255493, “In vitro activity of telavancin against a contemporary worldwide collection of Staphylococcus aureus isolates” (2010).
≈ marks a conversion by molar mass, not a printed value. Calls of active or inactive are those of the source. The rule behind the calls is not given here.

What was measured:
Assay type in all cases: functional
Staphylococcus aureus [1] = test: Antibacterial activity against methicillin-resistant Staphylococcus aureus clinical isolates assessed as resistant isolates by EUCAST method
Staphylococcus aureus [2] = test: Antibacterial activity against methicillin-resistant Staphylococcus aureus clinical isolates by CLSi method
Staphylococcus aureus [3] = test: Antibacterial activity against methicillin-resistant Staphylococcus aureus clinical isolates assessed as susceptible isolates by EUCAST method
Staphylococcus aureus [4] = test: Antibacterial activity against methicillin-susceptible Staphylococcus aureus clinical isolates assessed as resistant isolates by CLSI method
Staphylococcus aureus [5] = test: Antibacterial activity against methicillin-susceptible Staphylococcus aureus clinical isolates assessed as susceptible isolates by CLSI method
Staphylococcus aureus [6] = test: Antibacterial activity against methicillin-resistant Staphylococcus aureus clinical isolates assessed as susceptible isolates by CLSI method
Staphylococcus aureus [7] = test: Antibacterial activity against methicillin-susceptible Staphylococcus aureus clinical isolates by CLSi method
Staphylococcus aureus [8] = test: Antibacterial activity against methicillin-resistant Staphylococcus aureus clinical isolates assessed as resistant isolates by CLSI method
Staphylococcus aureus [9] = test: Antibacterial activity against methicillin-susceptible Staphylococcus aureus clinical isolates assessed as resistant isolates by EUCAST method
Staphylococcus aureus [10] = test: Antibacterial activity against methicillin-susceptible Staphylococcus aureus clinical isolates assessed as susceptible isolates by EUCAST method
Staphylococcus aureus [11] = test: Antibacterial activity against methicillin-resistant Staphylococcus aureus clinical isolates assessed as susceptibility breakpoint

Row | Molecule | Activity (Staphylococcus aureus [1]) | MIC50 (Staphylococcus aureus [2]) [µg/mL] | MIC90 (Staphylococcus aureus [2]) [µg/mL] | Activity (Staphylococcus aureus [3]) [%] | Activity (Staphylococcus aureus [4]) | Activity (Staphylococcus aureus [5]) [%] | Activity (Staphylococcus aureus [6]) [%] | MIC50 (Staphylococcus aureus [7]) [µg/mL] | MIC90 (Staphylococcus aureus [7]) [µg/mL] | Activity (Staphylococcus aureus [8]) | Activity (Staphylococcus aureus [9]) | Activity (Staphylococcus aureus [10]) [%] | Activity (Staphylococcus aureus [11])
1 | GENTAMICIN | 22.9% | < 1 | > 8 | 77.1 | 3.1% | 96.6 | 77.9 | < 1 | < 1 | 21.1% | 3.6% | 96.4 | 
2 | CCC[C@@H]1C[C@@H](C(=O)N[C@@H]([C@H]2O[C@H](SC)[C@H](O)[C@@H](O)[C@H]2O)[C@H](C)Cl)N(C)C1 [CLINDAMYCIN] | 45.3% |  | > 2 | 54.3 | 4.9% | 95 | 54.7 | ≤ 0.25 | ≤ 0.25 | 45% | 5% | 94.6 | 
3 | CC[C@H]1OC(=O)[C@H](C)[C@@H](O[C@H]2C[C@@](C)(OC)[C@@H](O)[C@H](C)O2)[C@H](C)[C@@H](O[C@@H]2O[C@H](C)C[C@H](N(C)C)[C@H]2O)[C@](C)(O)C[C@@H](C)C(=O)[C@H](C)[C@@H](O)[C@]1(C)O [ERYTHROMYCIN] | 85.6% | > 4 |  | 14.2 | 25.2% | 74.3 | 13.9 | ≤ 0.25 | > 4 | 85.6% | 25.2% | 74.5 | 
4 | CN(C)[C@@H]1C(O)=C(C(N)=O)C(=O)[C@@]2(O)C(O)=C3C(=O)c4c(O)cccc4[C@@](C)(O)[C@H]3C[C@@H]12 [TETRACYCLINE] | 19.9% |  |  | 80.1 | 5% | 94.6 | 80.7 | ≤ 1 | ≤ 1 | 19.1% | 5.8% | 94.2 | 
5 | CC(=O)NC[C@H]1CN(c2ccc(N3CCOCC3)c(F)c2)C(=O)O1 [LINEZOLID] | <0.1% | 1 (≈ 2.96 µM) | 2 (≈ 5.93 µM) |  | inactive | 100 |  | 2 (≈ 5.93 µM) | 2 (≈ 5.93 µM) | inactive | 0% | 100 | 
6 | CN[C@H](CC(C)C)C(=O)N[C@H]1C(=O)N[C@@H](CC(N)=O)C(=O)N[C@H]2C(=O)N[C@H]3C(=O)N[C@H](C(=O)N[C@H](C(=O)O)c4cc(O)cc(O)c4-c4cc3ccc4O)[C@H](O)c3ccc(c(Cl)c3)Oc3cc2cc(c3O[C@@H]2O[C@H](CO)[C@@H](O)[C@H](O)[C@H]2O[C@H]2C[C@](C)(N)[C@H](O)[C@H](C)O2)Oc2ccc(cc2Cl)[C@H]1O [VANCOMYCIN] | 0.1% | 1 (≈ 0.69 µM) | 1 (≈ 0.69 µM) | 99.9 | 0% | 100 | 99.9 | 1 (≈ 0.69 µM) | 1 (≈ 0.69 µM) | 0% | 0% | 100 | 
7 | CCCCCCCCCC(=O)N[C@@H](Cc1c[nH]c2ccccc12)C(=O)N[C@H](CC(N)=O)C(=O)N[C@@H](CC(=O)O)C(=O)N[C@@H]1C(=O)NCC(=O)N[C@@H](CCCN)C(=O)N[C@@H](CC(=O)O)C(=O)N[C@H](C)C(=O)N[C@@H](CC(=O)O)C(=O)NCC(=O)N[C@H](CO)C(=O)N[C@@H]([C@H](C)CC(=O)O)C(=O)N[C@@H](CC(=O)c2ccccc2N)C(=O)O[C@@H]1C | 0.1% | 0.25 (≈ 0.154 µM) | 0.5 (≈ 0.309 µM) | 99.9 | inactive | 100 | 99.9 | 0.25 (≈ 0.154 µM) | 0.5 (≈ 0.309 µM) | inactive | 0% | 100 | 
8 | CCCCCCCCCCNCCN[C@@]1(C)C[C@H](O[C@H]2[C@H](Oc3c4cc5cc3Oc3ccc(cc3Cl)[C@@H](O)[C@@H](NC(=O)[C@@H](CC(C)C)NC)C(=O)N[C@@H](CC(N)=O)C(=O)N[C@H]5C(=O)N[C@H]3C(=O)N[C@H](C(=O)N[C@H](C(=O)O)c5cc(O)c(CNCP(=O)(O)O)c(O)c5-c5cc3ccc5O)[C@H](O)c3ccc(c(Cl)c3)O4)O[C@H](CO)[C@@H](O)[C@@H]2O)O[C@@H](C)[C@H]1O [TELAVANCIN] | inactive | 0.12 (≈ 0.0684 µM) | 0.25 (≈ 0.142 µM) |  | inactive | 100 |  | 0.12 (≈ 0.0684 µM) | 0.25 (≈ 0.142 µM) | inactive | inactive | 100 | <=1 ug ml-1
9 | C[C@H]1COc2c(N3CCN(C)CC3)c(F)cc3c(=O)c(C(=O)O)cn1c23.C[C@H]1COc2c(N3CCN(C)CC3)c(F)cc3c(=O)c(C(=O)O)cn1c23.O [LEVOFLOXACIN] | 77.9% | > 4 | > 4 | 21.6 | 6.8% | 92.9 | 21.6 | ≤ 0.5 | ≤ 0.5 | 77.9% | 6.8% | 92.9 | 
